Where a SMILES comes first, the peptide text is derived from it. Bridges are numbered along the chain shown (N, C = ends). [ ]: non-standard residue; d: D form. The star is where a group is joined. hPhe(3-Cl-4-CF3) = N[C@@H](CCc1ccc(C(F)(F)F)c(Cl)c1)C(=O)O; NPrPhe(4-CF3) = CCCN[C@@H](Cc1ccc(C(F)(F)F)cc1)C(=O)O; NMeGly(cPent) = CN[C@H](C(=O)O)C1CCCC1; Pro(4,4-F2) = O=C(O)[C@@H]1CC(F)(F)CN1; NMeD = CN[C@@H](CC(=O)O)C(=O)O; NMeL = CN[C@@H](CC(C)C)C(=O)O; Morpholide = C1CN(*)CCO1; NMeA = CN[C@@H](C)C(=O)O; Aze = O=C(O)[C@@H]1CCN1; Ac4c = NC1(C(=O)O)CCC1; Sar = CNCC(=O)O
Legend:
[1] = target: GDP-bound HRAS wild-type protein (Homo sapiens, UniProt P01112); assay: Binding to HRAS by surface plasmon resonance (SPR), Single Cycle Kinetics; conditions: for HRAS/KRAS (ratio of KD value for HRAS to KD value for KRAS) / HRAS/KRAS (ratio of KD value with respect to HRAS to KD value with respect to KRAS): GDP-bound HRAS wild-type vs GDP-bound KRAS wild-type
GDP-bound HRAS wild-type protein, sequence (P01112 whole entry): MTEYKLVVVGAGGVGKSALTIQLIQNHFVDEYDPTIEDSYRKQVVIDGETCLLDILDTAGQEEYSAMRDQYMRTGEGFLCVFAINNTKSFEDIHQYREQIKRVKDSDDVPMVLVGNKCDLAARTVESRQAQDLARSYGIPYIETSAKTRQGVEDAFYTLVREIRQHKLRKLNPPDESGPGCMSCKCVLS

[2] = target: GDP-bound NRAS wild-type protein (Homo sapiens, UniProt P01111); assay: Binding to NRAS by surface plasmon resonance (SPR), Single Cycle Kinetics; conditions: for NRAS/KRAS (ratio of KD value for NRAS to KD value for KRAS) / NRAS/KRAS (ratio of KD value with respect to NRAS to KD value with respect to KRAS): GDP-bound NRAS wild-type vs GDP-bound KRAS wild-type
GDP-bound NRAS wild-type protein, sequence (P01111 whole entry): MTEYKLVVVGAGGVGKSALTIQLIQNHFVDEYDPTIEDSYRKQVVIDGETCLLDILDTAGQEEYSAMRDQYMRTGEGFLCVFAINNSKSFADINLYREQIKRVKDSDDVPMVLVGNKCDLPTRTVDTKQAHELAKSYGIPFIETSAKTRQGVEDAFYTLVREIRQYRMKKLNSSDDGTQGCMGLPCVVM

## CCCN1C(=O)[C@@H]2CCN2C(=O)[C@H](C)N(C)C(=O)[C@H]([C@@H](C)CC)NC(=O)[C@H](CC(C)C)N(C)C(=O)C[C@@H](C(=O)N2CCOCC2)N(C)C(=O)[C@H](C2CCCC2)N(C)C(=O)C2(CCC2)NC(=O)[C@@H]2CC(F)(F)CN2C(=O)[C@H](CCc2ccc(C(F)(F)F)c(Cl)c2)NC(=O)CN(C)C(=O)[C@@H]1Cc1ccc(C(F)(F)F)cc1 [PP0208] ([NMeL]I[NMeA][Aze][NPrPhe(4-CF3)][Sar][hPhe(3-Cl-4-CF3)][Pro(4,4-F2)][Ac4c][NMeGly(cPent)][NMeD]-Morpholide; lactam N-11)
[1]; KD ratio HRAS/KRAS, SPR
  HRAS/KRAS (ratio of KD for GDP-bound HRAS wild-type to KD for KRAS): C (A compound having a KD ratio of 0.1 or more and less than 3 is denoted as C)
[2]; KD ratio NRAS/KRAS, SPR
  NRAS/KRAS (ratio of KD for GDP-bound NRAS wild-type to KD for KRAS): C (A compound having a KD ratio of 0.1 or more and less than 3 is denoted as C)

## CCCC[C@H]1C(=O)N[C@@H]([C@@H](C)CC)C(=O)N(C)CC(=O)N(C)[C@H]2C/C=C\CCN(C2=O)[C@@H](Cc2ccc(C(F)(F)F)cc2)C(=O)N(C)CC(=O)N[C@@H](CCc2ccc(C(F)(F)F)c(Cl)c2)C(=O)N2C[C@H](OCC)C[C@H]2C(=O)NC2(CC(C)(C)C2)C(=O)N(C)[C@@H](C2CCCC2)C(=O)N(C)[C@H](C(=O)N(C)C)CC(=O)N1C [PP1750]
[1]; KD ratio, SPR
  HRAS/KRAS (ratio of KD value for HRAS to KD value for KRAS): B (a compound having 3 or more and less than 10 is denoted as B)
[2]; KD ratio, SPR
  NRAS/KRAS (ratio of KD value for NRAS to KD value for KRAS): A (a compound having 10 or more and less than 20 is denoted as A)

## CC[C@H](C)[C@@H]1NC(=O)[C@H](CC(C)C)N(C)C(=O)C[C@@H](C(=O)N2CCOCC2)N(C)C(=O)[C@H](C2CCCC2)N(C)C(=O)C2(CCCC2)NC(=O)[C@@H]2CCCN2C(=O)[C@H](CCc2ccc(C(F)(F)F)c(Cl)c2)NC(=O)CN(C)C(=O)[C@H](Cc2ccccc2)N2CCCCC[C@@H](C2=O)N(C)C(=O)CN(C)C1=O [PP0611]
[1]; KD ratio HRAS/KRAS, SPR
  HRAS/KRAS (ratio of KD value with respect to GDP-bound HRAS wild-type protein to KD value with respect to KRAS): B (a compound having 3 or more and less than 10 is denoted as B)
[2]; KD ratio NRAS/KRAS, SPR
  NRAS/KRAS (ratio of KD value with respect to GDP-bound NRAS wild-type protein to KD value with respect to KRAS): B (a compound having 3 or more and less than 10 is denoted as B)

## CCC[C@H]1C(=O)N[C@@H]([C@@H](C)CC)C(=O)N2CCC[C@H]2C(=O)N(C)[C@H]2C/C=C\CCN(C2=O)[C@@H](CC2CCCCC2)C(=O)N(C)CC(=O)N[C@@H](CCc2ccc(C(F)(F)F)c(OC)c2)C(=O)N2C[C@@H](C)C[C@H]2C(=O)N(C)C2(CCC2)C(=O)N(C)[C@@H](C2CCCC2)C(=O)N(C)[C@H](C(=O)N(C)C)CC(=O)N1C [PP2374]
[1]; SPR
  HRAS/KRAS (ratio of KD value with respect to HRAS to KD value with respect to KRAS): A (a compound having 10 or more and less than 20 is denoted as A)
[2]; SPR
  NRAS/KRAS (ratio of KD value with respect to NRAS to KD value with respect to KRAS): A (a compound having 10 or more and less than 20 is denoted as A)

## CC[C@H](C)[C@@H]1NC(=O)[C@H](CC(C)C)N(C)C(=O)C[C@@H](C(=O)N2CCOCC2)N(C)C(=O)[C@H](C2CCCC2)N(C)C(=O)C2(CCC2)NC(=O)[C@@H]2C[C@@H](OCC3CC3)CN2C(=O)[C@H](CCc2cc(F)c(C(F)(F)F)c(F)c2)NC(=O)CN(C)C(=O)[C@H](Cc2ccc(C(F)(F)F)cc2)N2CCCC[C@@H](C2=O)N(C)C(=O)CN(C)C1=O [PP1014]
[1]; KD ratio, SPR
  HRAS/KRAS (ratio of KD value with respect to HRAS to KD value with respect to KRAS): C (A compound having a KD ratio of 0.1 or more and less than 3 is denoted as C)
[2]; KD ratio, SPR
  NRAS/KRAS (ratio of KD value with respect to NRAS to KD value with respect to KRAS): C (A compound having a KD ratio of 0.1 or more and less than 3 is denoted as C)

## CCC[C@H]1C(=O)N[C@@H]([C@@H](C)CC)C(=O)N2CCC[C@H]2C(=O)N(C)[C@H]2C/C=C\CCN(C2=O)[C@@H](Cc2ccc(C)cc2)C(=O)N(C)CC(=O)N[C@@H](CCc2ccc(C(F)(F)F)c(OC)c2)C(=O)N2C[C@H](OCC)C[C@H]2C(=O)N(C)C2(CCC2)C(=O)N(C)[C@@H](C2CCCC2)C(=O)N(C)[C@H](C(=O)N(C)C)CC(=O)N1C [PP2332]
[1]; SPR
  HRAS/KRAS (ratio of KD value with respect to HRAS to KD value with respect to KRAS): B (a compound having 3 or more and less than 10 is denoted as B)
[2]; SPR
  NRAS/KRAS (ratio of KD value with respect to NRAS to KD value with respect to KRAS): A (a compound having 10 or more and less than 20 is denoted as A)

## CC[C@H](C)[C@@H]1NC(=O)[C@H](CC(F)F)N(C)C(=O)C[C@@H](C(=O)N(C)C)N(C)C(=O)[C@H](C2CCCC2)N(C)C(=O)C2(CC(C)(C)C2)NC(=O)[C@@H]2CC(F)(F)CN2C(=O)[C@H](CCc2cc(F)c(C(F)(F)F)c(F)c2)NC(=O)CN(C)C(=O)[C@H](Cc2ccc(C(F)(F)F)cc2)N2CC/C=C\C[C@@H](C2=O)N(C)C(=O)CN(C)C1=O [PP1709]
[1]; KD ratio, SPR
  HRAS/KRAS (ratio of KD value for HRAS to KD value for KRAS): A (a compound having 10 or more and less than 20 is denoted as A)
[2]; KD ratio, SPR
  NRAS/KRAS (ratio of KD value for NRAS to KD value for KRAS): A (a compound having 10 or more and less than 20 is denoted as A)

## CCC[C@H]1C(=O)N[C@@H]([C@@H](C)CC)C(=O)N2CCC[C@H]2C(=O)N(C)[C@H]2C/C=C\CCN(C2=O)[C@@H](Cc2ccc(C(F)F)cc2)C(=O)N(C)CC(=O)N[C@@H](CCc2ccc(Cl)c(Cl)c2)C(=O)N2C[C@H](OC3CCC3)C[C@H]2C(=O)NC2(CC(C)(C)C2)C(=O)N(C)[C@@H](C(CC)CC)C(=O)N(C)[C@H](C(=O)N(C)C)CC(=O)N1C [PP2646]
[1]; KD ratio HRAS/KRAS, class symbols
  HRAS/KRAS (ratio of KD value with respect to GDP-bound HRAS wild-type protein to KD value with respect to KRAS): A (a compound having 10 or more and less than 20 is denoted as A)
[2]; KD ratio NRAS/KRAS, class symbols
  NRAS/KRAS (ratio of KD value with respect to GDP-bound NRAS wild-type protein to KD value with respect to KRAS): AA (a compound having 20 or more is denoted as AA)
